This test relates to Obese Fa/fa Zucker rats. As to the kind of experiment: Effect on food intake (food consumption) in obese Zucker rats, five days of oral treatment. The format is in vivo, rat. Particulars: daily for 5 days. Here is the method: The synergistic effect of the combination of sibutramine and of a CB1 receptor antagonist on food intake was determined according to the following protocol:
Obese Fa/fa Zucker rats aged 7 weeks and originating from Iffa-Credo, France, were used in this study. The rats are housed in individual cages and weighed every day between 8 and 10 o'clock in the morning. The amount of food is also weighed each morning at the same time. This food (M20, Pietrement, France) is changed every day and the rats have free access thereto for 24 hours. All the rats are treated for a week with the vehicle (miglyol 812N and 0.5% methylcellulose/0.2% polysorbate 80) in two consecutive administrations. The rats are treated from the 8th day with the vehicle, the CB1 receptor antagonist (1-[bis(4-chlorophenyl)methyl]-3-[(3,5-difluorophenyl)-(methylsulfonyl)methylene]azetidine) or sibutramine by the oral route (see table below).
The sibutramine is dissolved in a 0.5% methylcellulose/0.2% polysorbate 80 solution and administered at a dose of 3 mg/kg; the CB1 receptor antagonist is dissolved in miglyol 812N (Hüls, Germany) at a dose of 0.6 mg/kg and the two products are administered under a volume of 1 ml/kg. Each group is composed of 12 to 14 animals. […]
The food consumption of each animal is measured every day. The results are expressed as mean amount of food consumed during the 5 days of treatment.

`CS(=O)(=O)C(=C1CN(C(c2ccc(Cl)cc2)c2ccc(Cl)cc2)C1)c1cc(F)cc(F)c1` [CB1 receptor antagonist, 1-[bis(4-chlorophenyl)methyl]-3-[(3,5-difluorophenyl)-(methylsulfonyl)methylene]azetidine]: for the setting “CB1 receptor antagonist 0.6 mg/kg oral in miglyol (then methylcellulose/polysorbate vehicle), vehicles 25.52 ± 0.30, p < 0.01”, the “Food consumption during the 5 days of treatment” value was determined as 24.00 ± 0.24 g. On to `CC(C)CC(N(C)C)C1(c2ccc(Cl)cc2)CCC1` (centres unmarked) [sibutramine, N-{1-[1-(4-chloro-phenyl)cyclobutyl]-3-methylbutyl}-N,N-dimethylamine], for which the “Food consumption during the 5 days of treatment” value (sibutramine 3 mg/kg oral (after miglyol), mean amount of food consumed, vehicles 25.52 ± 0.30, p < 0.05) is recorded as 24.60 ± 0.32 g.

The values are drawn from patent publication US20080058381A1, “COMBINATION OF A CB1 RECEPTOR ANTAGONIST AND OF SIBUTRAMINE, THE PHARMACEUTICAL COMPOSITIONS COMPRISING THEM AND THEIR USE IN THE TREATMENT OF OBESITY” (priority 2000, published 2008).
